Test results reported in patent US9164086B2, “Fluorescent dyes with phosphorylated hydroxymethyl groups and their use in light microscopy and imaging techniques” (Max-Planck-Gesellschaft zur Foerderung der Wissenschaften …, priority 2011, dated 2015).
Entries after “also recorded” stand apart in the source; their conditions may differ.

Tests used:
[1] = commercial dyes, solvent not stated; cited from earlier work
Solubility (qualitative) = assay type: physicochemical; conditions: for solubility in other solvents and buffers: solvents named in the value
[2] = UV-visible absorption spectra; assay type: physicochemical; conditions: for λabs of the conjugate: conjugate with sheep anti-mouse IG
Description: (§1) UV-visible absorption spectra were recorded on a Varian Cary 4000 UV-Vis spectrophotometer, and fluorescence spectra on a Varian Cary Eclipse fluorescence spectrophotometer. Reactions were carried out with magnetic stirring in Schlenk flasks equipped with septa or reflux condensers with bubble-counters under argon using a standard manifold with vacuum and argon lines. The MICROTOF spectrometer equipped with ESI ion source Apollo and direct injector with LC autosampler Agilent RR 1200 was used for obtaining mass spectra and high resolution mass-spectra (ESI-HRMS). ESI-HRMS were obtained also on APEX IV spectrometer (Bruker). ESI spectra were also obtained on a Varian 500MS spectrometer in some cases. HPLC system (Knauer): Smartline pump 1000 (2×), UV detector 2500, column thermostat 4000 (25° C.), mixing chamber, injection valve with 20 and 100 μL loop for analytical and preparative columns, respectively; 6-port-3-channel switching valve; analytical column: Eurospher-100 C18, 5 μm, 250×4 mm, 1.2 mL/min; preparative column: Eurospher-100-5 C18, 5 μm, 250×8 mm, 4 mL/min; solvent A: water+0.1% v/v trifluoroacetic acid (TFA); solvent B: CH3CN+0.1% v/v TFA; detection at 636 nm (if not stated otherwise). Normal phase analytical TLC was performed on MERCK ready-to-use plates with silica gel 60 (F254).

[3] = Fluorescence spectra, quantum yield and excited state lifetime; assay type: physicochemical; conditions: for Φfl. / Φfl. of the conjugate: as fraction; for fluorescence quantum yield of the antibody conjugates obtained from the dye: after attaching to antibodies; for λem of the conjugate / Φfl. of the conjugate: conjugate with sheep anti-mouse IG
Description: as §1

CC1(C)C=C(CS(=O)(=O)O)c2cc3c(C(F)(F)F)cc(=O)oc3cc2N1CCCCCC(=O)ON1C(=O)CCC1=O.CCN(CC)CC [Alexa Fluor™ 430]
absorption maximum [1]: 434 nm | emission maximum [1]: 539 nm

CC(C)(C)OC(=O)CCCN1c2cc3oc(=O)c(-c4ccncc4)cc3cc2C(COP(=O)(OC(C)(C)C)OC(C)(C)C)=CC1(C)C [Compound 10]
Remarks: solubility in water (Solubility (qualitative); water): Low solubility in water | ε ([2]; MeOH): 30700 M⁻¹ cm⁻¹ | ε · 10^−4 ([2]; MeOH): 3.07 M^−1 cm^−1 | λmax (abs.) ([2]; MeOH): 430 nm | fluorescence quantum yields (in words) [3]: high | Φfl (fluorescence quantum yield) ([3]; MeOH): 82% | λmax (fl.) ([3]; MeOH): 501 nm | Φfl. ([3]; MeOH): 0.82

CC1(C)C=C(COP(=O)(O)O)c2cc3cc(-c4ccncc4)c(=O)oc3cc2N1CCCC(=O)O [Compound 11]
ε · 10^−4 ([2]; PBS (7.4)): 2.27 M^−1 cm^−1 | λmax (abs.) ([2]; PBS (7.4)): 436 nm | ε ([2]; PBS buffer at pH 7.4): 22700 M⁻¹ cm⁻¹ | Stokes shift [3]: 79 nm | fluorescence quantum yields (in words) [3]: high | Φfl (fluorescence quantum yield) ([3]; PBS (7.4)): 68% | λmax (fl.) ([3]; PBS (7.4)): 515 nm | τ1 (lifetime of the excited state) ([3]; PBS (7.4)): 3.3 ns | Φfl. ([3]; PBS buffer at pH 7.4): 0.68 | fluorescence quantum yield of the antibody conjugates obtained from the dye [3]: 30%

CC1(C)C=C(COP(=O)(O)O)c2cc3cc(-c4ccncc4)c(=O)oc3cc2N1CCCC(=O)ON1C(=O)CCC1=O [Compound 12]
λabs of the conjugate ([2]; PBS buffer at pH 7.4): 439 nm | λem of the conjugate ([3]; PBS buffer at pH 7.4): 513 nm | Φfl. of the conjugate ([3]; PBS buffer at pH 7.4): 0.30

CCOC(=O)CCCN1c2cc3oc(=O)c(-c4ccncc4)cc3cc2C(C)=CC1(C)C [Compound 18, reference compound]
Remarks: solubility in water (Solubility (qualitative); water): Low solubility in water | ε ([2]; MeOH): 33400 M⁻¹ cm⁻¹ | ε · 10^−4 ([2]; MeOH): 3.34 M^−1 cm^−1 | λmax (abs.) ([2]; MeOH): 437 nm | fluorescence quantum yields (in words) [3]: high | Φfl (fluorescence quantum yield) ([3]; MeOH): 77% | λmax (fl.) ([3]; MeOH): 507 nm | Φfl. ([3]; MeOH): 0.77

CC1(C)C=C(CS(=O)(=O)O)c2cc3cc(-c4ccncc4)c(=O)oc3cc2N1CCCC(=O)O [Compound 20-H, reference compound]
ε ([2]; MeOH): 25900 M⁻¹ cm⁻¹ | ε · 10^−4 ([2]; MeOH): 2.59 M^−1 cm^−1 | λmax (abs.) ([2]; MeOH): 436 nm | ε · 10^−4 ([2]; PBS (7.4)): 3.12 M^−1 cm^−1 | λmax (abs.) ([2]; PBS (7.4)): 436 nm | ε ([2]; PBS buffer at pH 7.4): 31200 M⁻¹ cm⁻¹ | fluorescence quantum yields (in words) [3]: high | Φfl (fluorescence quantum yield) ([3]; MeOH): 56% | λmax (fl.) ([3]; MeOH): 510 nm | Φfl. ([3]; MeOH): 0.56 | Φfl (fluorescence quantum yield) ([3]; PBS (7.4)): 57% | λmax (fl.) ([3]; PBS (7.4)): 515 nm | Φfl. ([3]; PBS buffer at pH 7.4): 0.57 | fluorescence quantum yield of the antibody conjugates obtained from the dye [3]: 18%

CC1(C)C=C(CS(=O)(=O)O)c2cc3cc(-c4ccncc4)c(=O)oc3cc2N1CCCC(=O)ON1C(=O)CCC1=O [Compound 20-NHS, reference compound]
λabs of the conjugate ([2]; PBS buffer at pH 7.4): 437 nm | λem of the conjugate ([3]; PBS buffer at pH 7.4): 512 nm | Φfl. of the conjugate ([3]; PBS buffer at pH 7.4): 0.18

CN(CCCC(=O)O)C(=O)c1c(F)c(F)c(F)c(F)c1C1=c2cc3c4c(c2Oc2c1cc1c5c2CCCN5C(C)(C)C=C1CO)CCC[N+]=4C(C)(C)C=C3CO [Compound 24-H]
solubility in aqueous buffers (Solubility (qualitative); aqueous buffers): low solubility in aqueous buffers | solubility in other solvents and buffers (Solubility (qualitative)): well-soluble in MeOH, CH3CN, and chlorinated solvents | Remarks: solubility in water (Solubility (qualitative); water): Limited solubility in water | solubility in water (Solubility (qualitative); water): slightly soluble in water | ε · 10^−4 ([2]; H2O): 8.6 M^−1 cm^−1 | λmax (abs.) ([2]; H2O): 632 nm | Φfl (fluorescence quantum yield) ([3]; H2O): 85% | λmax (fl.) ([3]; H2O): 654 nm | fluorescence quantum yield of the antibody conjugates obtained from the dye [3]: 66%

CN(CCCC(=O)O)C(=O)c1c(F)c(F)c(F)c(F)c1C1=c2cc3c4c(c2Oc2c1cc1c5c2CCCN5C(C)(C)C=C1COP(=O)(O)O)CCC[N+]=4C(C)(C)C=C3COP(=O)([O-])O [Compound 26-H]
solubility in other solvents and buffers (Solubility (qualitative)): well-soluble in aq. NaHCO3, alkali, Et3N, and PBS buffers, MeOH; also recorded: insoluble in acetone, CH3CN, chloroform | ε · 10^−4 ([2]; H2O): 7.5 M^−1 cm^−1 | λmax (abs.) ([2]; H2O): 635 nm | Φfl (fluorescence quantum yield) ([3]; H2O): 83% | λmax (fl.) ([3]; H2O): 655 nm | τ1 (lifetime of the excited state) ([3]; H2O, monoexponential fit): 3.0 ns | fluorescence quantum yield of the antibody conjugates obtained from the dye [3]: 51%
